# Measurements as given in patent US20240180886A1, “INHIBITORS OF PROTEIN TYROSINE PHOSPHATASE, COMPOSITIONS, AND METHODS OF USE” (BRISTOL-MYERS SQUIBB COMPANY, priority 2022, published 2024).
# What was measured:
# PTPN2 [1] = target: T1, PTPN2 (Homo sapiens (Human), UniProt P17706); assay: PhosphoSens assay (PTPN2 BCHEM); assay type: biochemical; details: substrate AQT0264 20 μM, PTPN2 150 pM
# Protocol: A PhosphoSens® kinase assay was performed as described by the vendor (AssayQuant Technologies, Marlborough, MA). Briefly, 1000× solutions of compounds were prepared in DMSO via serial dilution of the 10 mM DMSO stocks using 3-fold intervals in a 384-well reagent plate. 50 nL of the compound dilution series was then added to the corresponding wells of a 384-well assay plate. […] Finally, […] of 5× PTPN2 enzyme stock was added to each well of the assay plate for a final enzyme concentration of 150 pM. Reaction progress curves were collected by sampling fluorescence intensity at the excitation wavelength 360 nm (λex360) and emission wavelength 480 nm (λem480) every 71 seconds for one hour using a Synergy H4 plate reader (BioTek Instruments/Agilent Technologies, Winooski, VT) at room temperature.
# Target sequence in this assay (P17706 whole entry): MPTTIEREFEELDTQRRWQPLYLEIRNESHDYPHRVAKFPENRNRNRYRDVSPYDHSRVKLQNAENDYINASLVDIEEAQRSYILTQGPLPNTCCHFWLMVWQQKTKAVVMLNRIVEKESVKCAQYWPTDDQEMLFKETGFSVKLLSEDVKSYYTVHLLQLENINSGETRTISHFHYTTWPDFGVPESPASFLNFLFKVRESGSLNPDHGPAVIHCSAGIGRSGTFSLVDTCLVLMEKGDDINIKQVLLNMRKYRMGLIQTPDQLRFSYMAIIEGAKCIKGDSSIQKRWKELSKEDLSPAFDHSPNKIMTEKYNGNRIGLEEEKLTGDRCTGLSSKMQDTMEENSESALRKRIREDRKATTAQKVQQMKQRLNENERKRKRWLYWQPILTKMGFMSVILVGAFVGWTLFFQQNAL
# PTPN2 [2] = target: T1, PTPN2; assay: Phosphatase activity assay using DiFMUP as substrate; assay type: biochemical; details: PTPN2 0.15 nM, 10 mM DTT
# Protocol: The PTPN2 biochemical assay was performed as follows, a 5× stock solution of human PTPN2 (SRP5075, MilliporeSigma, Burlington, MA) and a 1.25× stock solution of DiFMUP (D6567, ThermoFisher Scientific, Waltham, MA), were prepared in 1× reaction buffer consisting of 50 mM HEPES, pH 7.4, 1 mM EDTA, 150 mM NaCl, 0.2 mg/mL BSA, 100 U/mL catalase and 10 mM DTT. […] of the DiFMUP substrate solution, for a final concentration of […] DiFMUP substrate, was added to a Corning 3574 384-well, white, non-binding surface microtiter plate containing […] of serially diluted test compounds prepared in DMSO. The reactions were started with the addition of […] of the enzyme solution, for a final PTPN2 concentration of 0.15 nM, and monitored every 105 seconds for 60 minutes at λEX 360/λEM 460 in a BioTek Synergy HTX plate reader (Agilent Technologies, Santa Clara, CA) at room temperature. The initial linear portions of the progress curves were fit according to a linear equation to yield the slopes and converted to % inhibition based on a value of 100% activity for the no inhibitor treated control. IC50 values of each compound were obtained by fitting the % inhibition-compound concentration curves using Dotmatics software (Dotmatics, Bishops Stortford, Hertfordshire, England),
# Target sequence in this assay (P17706 other isoform, or with tags, fused parts or gaps isoform P17706-2): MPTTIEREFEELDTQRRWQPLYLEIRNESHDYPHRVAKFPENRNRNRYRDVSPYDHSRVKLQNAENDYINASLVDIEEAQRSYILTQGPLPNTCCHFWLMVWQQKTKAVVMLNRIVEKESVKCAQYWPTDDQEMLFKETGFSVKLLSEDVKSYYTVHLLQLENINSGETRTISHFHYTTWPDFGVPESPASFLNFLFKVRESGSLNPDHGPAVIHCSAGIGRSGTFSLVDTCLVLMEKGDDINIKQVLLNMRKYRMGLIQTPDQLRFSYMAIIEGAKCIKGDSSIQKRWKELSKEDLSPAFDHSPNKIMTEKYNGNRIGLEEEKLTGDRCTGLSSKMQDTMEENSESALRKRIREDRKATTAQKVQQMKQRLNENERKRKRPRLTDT
# [3] = test system: phosphorylated STAT1 in B16-F10 cells; assay: Phospho-STAT1 (Tyr701) HTRF assay in B16-F10 cells with IFN-gamma; assay type: cell-based; details: mouse IFN-gamma 100 ng/mL, 1 hour, read-out: pSTAT1 HTRF B16F10 EC50
# Protocol: B16-F10 cells (ATCC, Manassas, VA, #CRL-6475) were cultured in DMEM growth medium (ThermoFisher Scientific, Waltham, MA, #11995-040) supplemented with 10% heat-inactivated FBS (ThermoFisher Scientific, #16140-071) and 1% pen/strep (ThermoFisher Scientific, #15140-122). The cells were seeded into a white opaque 384-well tissue culture treated microplate (PerkinElmer, Waltham, MA, #6007688) at a density of 10,000 cells/well in 20 uL total volume and incubated overnight at 37 C and 5% CO2. 30 nL of compounds dissolved in DMSO were then transferred from a source plate into target wells with the Echo650 acoustic liquid handler (Beckman Coulter, Indianapolis, IN). Negative control wells received 30 nL of DMSO only (0.15% final concentration). Plates were returned to the incubator for 1 hour and then cells were treated with either 5 uL of growth medium or 5 uL of growth medium containing 500 ng/mL of recombinant mouse IFN-gamma protein (R&D Systems, Minneapolis, MN, #485-MI/CF, 100 ng/mL final concentration) using the Assist automated pipetting platform (INTEGRA Biosciences, Hudson, NH). Plates were incubated at 37 C for 1 hour and assayed for phosphorylated STAT1 protein levels with the phospho-STAT1 (Tyr701) HTRF kit (Cisbio, Bedford, MA, #63ADK026PEH) according to the manufacturer's instructions.
# B16-F10 cells = assay: Cell proliferation assay (CellTiter-Glo) in B16-F10 cells with IFN-gamma; assay type: cell-based; details: 120 h, mouse IFN-gamma 10 ng/mL, read-out: PTPN2 Prolif 5d B16F10 EC50
Compound,IC50 (PTPN2 [1]),IC50 (PTPN2 [2]),EC50 [3],EC50 (B16-F10 cells)
"Cc1cccnc1NCc1cc(O)c(N2CC(=O)NS2(=O)=O)c(F)c1 [EXAMPLE 15, 5-[2-fluoro-6-hydroxy-4-[[(3-methyl-2-pyridyl)amino]methyl]phenyl]-1,1-dioxo-1,2,5-thiadiazolidin-3-one]",110 nM,460 nM,5020 nM,6480 nM
"O=C1CN(c2c(O)cc(CNc3cc(OC4CC4)ccn3)cc2F)S(=O)(=O)N1 [EXAMPLE 6, 5-[4-[[[4-(cyclopropoxy)-2-pyridyl]amino]methyl]-2-fluoro-6-hydroxy-phenyl]-1,1-dioxo-1,2,5-thiadiazolidin-3-one]",3 nM,10 nM,140 nM,170 nM
"Cc1ccc(NCc2cc(O)c(N3CC(=O)NS3(=O)=O)c(F)c2)nc1 [EXAMPLE 14, 5-[2-fluoro-6-hydroxy-4-[[(5-methyl-2-pyridyl)amino]methyl]phenyl]-1,1-dioxo-1,2,5-thiadiazolidin-3-one]",10 nM,10 nM,750 nM,610 nM
"O=C1CN(c2c(O)cc(CNc3cc(C4CC4)ccn3)cc2F)S(=O)(=O)N1 [EXAMPLE 1, 5-[4-[[(4-cyclopropyl-2-pyridyl)amino]methyl]-2-fluoro-6-hydroxy-phenyl]-1,1-dioxo-1,2,5-thiadiazolidin-3-one]",6 nM,1 nM,260 nM,580 nM
"O=C1CN(c2c(O)cc(CNc3ccc(-c4ccccc4)cn3)cc2F)S(=O)(=O)N1 [EXAMPLE 8, 5-[2-fluoro-6-hydroxy-4-[[(5-phenyl-2-pyridyl)amino]methyl]phenyl]-1,1-dioxo-1,2,5-thiadiazolidin-3-one]",50 nM,950 nM,3930 nM,6250 nM
"O=C1CN(c2c(O)cc(CNc3cccc(C(F)F)n3)cc2F)S(=O)(=O)N1 [EXAMPLE 42, 5-[4-[[[6-(difluoromethyl)-2-pyridyl]amino]methyl]-2-fluoro-6-hydroxy-phenyl]-1,1-dioxo-1,2,5-thiadiazolidin-3-one]",–,40 nM,4700 nM,160 nM
"COc1cc(NCc2cc(O)c(N3CC(=O)NS3(=O)=O)c(F)c2)nc(OC)c1 [EXAMPLE 18, 5-[4-[[(4,6-dimethoxy-2-pyridyl)amino]methyl]-2-fluoro-6-hydroxy-phenyl]-1,1-dioxo-1,2,5-thiadiazolidin-3-one]",–,20 nM,670 nM,670 nM
"Cc1cc(NCc2cc(O)c(N3CC(=O)NS3(=O)=O)c(F)c2)ncc1F [EXAMPLE 31, 5-[2-fluoro-4-[[(5-fluoro-4-methyl-2-pyridyl)amino]methyl]-6-hydroxy-phenyl]-1,1-dioxo-1,2,5-thiadiazolidin-3-one]",20 nM,50 nM,1190 nM,1530 nM
"N#Cc1ccnc(NCc2cc(O)c(N3CC(=O)NS3(=O)=O)c(F)c2)c1 [EXAMPLE 11, 2-[[3-fluoro-5-hydroxy-4-(1,1,4-trioxo-1,2,5-thiadiazolidin-2-yl)phenyl]methylamino]pyridine-4-carbonitrile]",40 nM,100 nM,1990 nM,3130 nM
"O=C1CN(c2c(O)cc(CNc3cccc(=O)[nH]3)cc2F)S(=O)(=O)N1 [EXAMPLE 51, 5-(2-fluoro-6-hydroxy-4-(((6-oxo-1,6-dihydropyridin-2-yl)amino)methyl)phenyl)-1,2,5-thiadiazolidin-3-one 1,1-dioxide]",–,0.2 nM,200 nM,600 nM
"O=C1CN(c2c(O)cc(CNc3cccc(OC(F)F)n3)cc2F)S(=O)(=O)N1 [EXAMPLE 43, 5-[4-[[[6-(difluoromethoxy)-2-pyridyl]amino]methyl]-2-fluoro-6-hydroxy-phenyl]-1,1-dioxo-1,2,5-thiadiazolidin-3-one]",–,110 nM,> 15000 nM,6570 nM
"COc1ccnc(NCc2cc(O)c(N3CC(=O)NS3(=O)=O)c(F)c2)c1OC [EXAMPLE 27, 5-[4-[[(3,4-dimethoxy-2-pyridyl)amino]methyl]-2-fluoro-6-hydroxy-phenyl]-1,1-dioxo-1,2,5-thiadiazolidin-3-one]",–,810 nM,> 15000 nM,1710 nM
"COc1cc(C)nc(NCc2cc(O)c(N3CC(=O)NS3(=O)=O)c(F)c2)c1 [EXAMPLE 41, 5-[2-fluoro-6-hydroxy-4-[[(4-methoxy-6-methyl-2-pyridyl)amino]methyl]phenyl]-1,1-dioxo-1,2,5-thiadiazolidin-3-one]",–,2 nM,59 nM,50 nM
"Cc1cc(Oc2ccccc2)cc(NCc2cc(O)c(N3CC(=O)NS3(=O)=O)c(F)c2)n1 [EXAMPLE 52, 5-(2-fluoro-6-hydroxy-4-(((6-methyl-4-phenoxypyridin-2-yl)amino)methyl)phenyl)-1,2,5-thiadiazolidin-3-one 1,1-dioxide]",–,10 nM,6290 nM,3340 nM
"Cc1cc(Br)nc(NCc2cc(O)c(N3CC(=O)NS3(=O)=O)c(F)c2)c1 [EXAMPLE 48, 5-(4-(((6-bromo-4-methylpyridin-2-yl)amino)methyl)-2-fluoro-6-hydroxyphenyl)-1,2,5-thiadiazolidin-3-one 1,1-dioxide]",–,40 nM,3110 nM,4620 nM
"COc1cc(C)cc(NCc2cc(O)c(N3CC(=O)NS3(=O)=O)c(F)c2)n1 [EXAMPLE 39, 5-(2-fluoro-6-hydroxy-4-(((6-methoxy-4-methylpyridin-2-yl)amino)methyl)phenyl)-1,2,5-thiadiazolidin-3-one 1,1-dioxide]",–,140 nM,1940 nM,4710 nM
"COc1ccc(C)c(NCc2cc(O)c(N3CC(=O)NS3(=O)=O)c(F)c2)n1 [EXAMPLE 29, 5-[2-fluoro-6-hydroxy-4-[[(6-methoxy-3-methyl-2-pyridyl)amino]methyl]phenyl]-1,1-dioxo-1,2,5-thiadiazolidin-3-one]",–,5 nM,7380 nM,9020 nM
"Cc1cc(NCc2cc(O)c(N3CC(=O)NS3(=O)=O)c(F)c2)nc(N2CCOCC2)c1 [EXAMPLE 49, 5-(2-fluoro-6-hydroxy-4-(((4-methyl-6-morpholinopyridin-2-yl)amino)methyl)phenyl)-1,2,5-thiadiazolidin-3-one 1,1-dioxide]",–,20 nM,4820 nM,14700 nM
"COc1ccc(OC)c(NCc2cc(O)c(N3CC(=O)NS3(=O)=O)c(F)c2)n1 [EXAMPLE 21, 5-[4-[[(3,6-dimethoxy-2-pyridyl)amino]methyl]-2-fluoro-6-hydroxy-phenyl]-1,1-dioxo-1,2,5-thiadiazolidin-3-one]",–,20 nM,9450 nM,6700 nM
"N#Cc1cccc(NCc2cc(O)c(N3CC(=O)NS3(=O)=O)c(F)c2)n1 [EXAMPLE 40, 6-[[3-fluoro-5-hydroxy-4-(1,1,4-trioxo-1,2,5-thiadiazolidin-2-yl)phenyl]methylamino]pyridine-2-carbonitrile]",–,5 nM,1750 nM,2190 nM
"CN(C)c1cccc(NCc2cc(O)c(N3CC(=O)NS3(=O)=O)c(F)c2)n1 [EXAMPLE 44, 5-(4-(((6-(dimethylamino)pyridin-2-yl)amino)methyl)-2-fluoro-6-hydroxyphenyl)-1,2,5-thiadiazolidin-3-one 1,1-dioxide]",–,10 nM,4850 nM,5750 nM
